SMILES strings stand for the structures.

This note sets out measurements from publication PMC12131194, “Rational design, synthesis, and evaluation of novel polypharmacological compounds targeting NaV1.5, KV1.5, and K2P channels for atrial fibrillation” (The Journal of Biological Chemistry, 2025).

The target in the assay is T1, Kir2.1 (Rattus norvegicus, UniProt Q64273).
T1 construct: Kir2.1 (KCNJ2, NM_017296); expressed in transfected cells; host or cells: Xenopus laevis oocytes injected with cRNA
T1 sequence (Q64273 1-427): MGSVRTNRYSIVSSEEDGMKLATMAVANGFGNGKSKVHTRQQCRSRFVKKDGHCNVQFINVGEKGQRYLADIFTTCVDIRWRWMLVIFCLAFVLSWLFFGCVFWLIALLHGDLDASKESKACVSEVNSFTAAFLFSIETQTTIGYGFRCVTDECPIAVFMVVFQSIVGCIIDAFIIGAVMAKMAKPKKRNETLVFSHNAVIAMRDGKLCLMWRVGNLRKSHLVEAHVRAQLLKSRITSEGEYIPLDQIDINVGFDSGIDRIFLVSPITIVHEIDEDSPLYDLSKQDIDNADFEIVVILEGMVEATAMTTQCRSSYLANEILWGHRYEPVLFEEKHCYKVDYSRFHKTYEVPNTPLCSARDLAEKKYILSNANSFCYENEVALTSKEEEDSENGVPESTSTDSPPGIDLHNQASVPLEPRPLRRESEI
In words: TEVC selectivity in X. laevis oocytes, Kir2.1. In kind it is cell-based. As to conditions: mean ± SD, n = 3, read-out: Effect on Kir2.1 (inhibition). As for the experimental part: After confirming compound 6f simultaneous blockade of TASK-1, KV1.5, and NaV1.5, other cardiac channels (Kir2.1, TREK-1, TASK-4) were tested for selectivity at 100 μM (Fig. 8).
To obtain X. laevis oocytes, the frogs were anesthetized with 2 g/L of tricaine methanesulfonate, and the ovarian lobes were mechanically separated with forceps. The oocytes were incubated for 120 min in an OR2 solution containing in mM: NaCl 82.5, KCl 2, MgCl2 1, HEPES 5 (pH 7.5) supplemented with 2 mg/ml of collagenase II (Sigma) to remove residual connective tissue and obtain individual oocytes. […]
In order to overexpress the channel in the oocyte, each of the channels to be measured was subcloned (complementary DNA (cDNA); human TASK-1 (KCNK3, NM_002246), h KV1.5 (KCNA5, NM_002234), h NaV1.5 (hH1, M77235), TASK-4/TALK-2 (KCNK17, NM_AF358910), TREK-1 (KCNK2, AF004711) and Kir2.1 (KCNJ2, NM_017296) into pSGEM, pBF1 or pSP64 expression vector, and the cDNA was linearized with NheI or MluI. Complementary RNA (cRNA) was synthesized with the mMESSAGE mMACHINE-Kit (Ambion). The quality of the cRNA was tested on an agarose gel by electrophoresis. cRNA was quantified using a UV-Vis spectrophotometer (NanoDrop 2000). […] After this time, the overexpression of each channel was monitored through electrophysiology. […]

`CCCCN(CCCC)CC(=O)Nc1ccc(OC)cc1OC` [Compound 6f, 2-(dibutylamine)-N-(2,4-dimethoxiphenyl)acetamide]: the inhibition (as a rule, the drop in the measured response relative to a control, in per cent) at 100 µM is -1.01%.
